Active and inactive are the calls of the source.
What was measured:
[1] = target: FAD-linked sulfhydryl oxidase ALR (Homo sapiens, UniProt P55789); assay: ALR-catalysed DTT oxidation blockers – biochemical, H2O2 detection, luminescence, cherry-pick, dose response (AID 493248)
[2] = luciferase reporter signal suppression in cells – H4 neuroglioma cells, luminescence, dose response (AID 1990); format: functional, cell-based
[3] = Luminescence Cell-Based Dose Response HTS to Identify Inhibitors of 5'UTR Stem-Loop Driven Prion Protein mRNA Translation in H4 Neuroglioblastoma Cells. [Related pubchem assays: 1827 (Project Summary), 1813 (Primary HTS)]; format: functional
[4] = alpha-synuclein stem-loop luciferase translation blockers – H4 neuroglioma cells, luminescence, confirmation (AID 1988); format: functional, cell-based
[5] = Luminescence Cell-Based Dose Retest to Confirm Inhibitors of Cancer Stem Cells. [Related pubchem assays (depositor defined):AID2717, AID2721]; format: functional; conditions: Homo sapiens
Streptococcus = assay: GAS UMAA2166 growth inhibition – luminescence, BacTiterGlo, counter-screen for streptokinase expression inhibitor project, dose response (AID 1915); format: functional, organism-based;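 also: potency for reduction of bacterial viability or growth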
[6] = tested on: Streptococcus sp. 'group A'; assay: Streptococcus pyogenes SK(-)GAS viability under kanamycin – luminescence, BacTiterGlo, confirmation, counter-screen for streptokinase expression inhibitor project, dose response (AID 1900); format: functional, organism-based
Streptokinase A = target: T1, Streptokinase A (Streptococcus pyogenes serotype M1, UniProt P10520); assay: viability-normalized secreted streptokinase activity reduction – plasminogen activation absorbance, OD405, dose response (AID 1914); format: functional, Streptococcus pyogenes M1 GAS;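 also: secreted streptokinase activity via plasminogen activation per viability signal from cell pellet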
T1 sequence (P10520 whole entry): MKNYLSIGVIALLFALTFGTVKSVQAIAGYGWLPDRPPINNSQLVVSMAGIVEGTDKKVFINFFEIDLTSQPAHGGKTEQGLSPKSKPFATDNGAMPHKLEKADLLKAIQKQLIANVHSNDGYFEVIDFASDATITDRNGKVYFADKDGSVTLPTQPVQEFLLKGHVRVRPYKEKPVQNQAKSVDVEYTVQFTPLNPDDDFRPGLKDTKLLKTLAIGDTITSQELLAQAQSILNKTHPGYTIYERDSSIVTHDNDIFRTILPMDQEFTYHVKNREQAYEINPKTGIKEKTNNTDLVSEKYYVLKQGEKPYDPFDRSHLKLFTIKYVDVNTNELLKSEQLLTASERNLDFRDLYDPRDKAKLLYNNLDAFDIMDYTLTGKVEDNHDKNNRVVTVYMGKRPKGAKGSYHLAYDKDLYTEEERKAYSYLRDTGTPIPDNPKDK

[7] = Trypanosoma cruzi growth suppression in host cells – NIH3T3 host cells, beta-gal luminescence, confirmation (AID 2044); format: functional, cell-based;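 also: intracellular parasites grown in NIH/3T3 mouse fibroblasts as host cells; luminescent beta-galactosidase reporter signal from transgenic T. cruzi replicating inside host cells; inhibitors lower the luminescence signal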
[8] = NIH3T3 cell viability loss – ATP luminescence, mouse fibroblasts, counter-screen, dose response (AID 2010); format: functional, cell-based;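 also: cells exposed to compound for about 90 hours before reading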
Cytochrome P450 2C19 = Cytochrome P450 2C19 (Homo sapiens, UniProt P33261); assay: Cytochrome panel assay with activity outcomes. Panel member name: p450-cyp2c19 Compounds with AC50 equal or less than 10 uM are considered active; format: functional; conditions: read-out: AC50
[9] = target: T2, Corticotropin-releasing factor receptor 2/Corticotropin-releasing factor-binding protein (Homo sapiens, UniProt P24387+Q13324); assay: activators of CRF receptor 2 with binding protein – uHTS hits, confirmation (AID 602473); format: functional; conditions: read-out: EC50_Mean
T2 sequence (Q13324 whole entry): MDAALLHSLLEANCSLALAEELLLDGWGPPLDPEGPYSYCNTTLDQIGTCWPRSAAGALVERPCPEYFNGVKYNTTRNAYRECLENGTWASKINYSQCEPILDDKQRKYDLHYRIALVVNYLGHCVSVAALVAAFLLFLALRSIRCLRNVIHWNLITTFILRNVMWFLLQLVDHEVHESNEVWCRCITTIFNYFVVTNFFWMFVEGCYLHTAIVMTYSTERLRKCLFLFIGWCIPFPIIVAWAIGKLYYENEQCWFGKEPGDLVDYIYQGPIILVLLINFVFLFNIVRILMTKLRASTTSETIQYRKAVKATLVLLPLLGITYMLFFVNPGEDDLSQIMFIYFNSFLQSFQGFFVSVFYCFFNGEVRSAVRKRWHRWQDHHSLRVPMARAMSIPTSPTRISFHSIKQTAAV
T2 sequence (P24387 whole entry): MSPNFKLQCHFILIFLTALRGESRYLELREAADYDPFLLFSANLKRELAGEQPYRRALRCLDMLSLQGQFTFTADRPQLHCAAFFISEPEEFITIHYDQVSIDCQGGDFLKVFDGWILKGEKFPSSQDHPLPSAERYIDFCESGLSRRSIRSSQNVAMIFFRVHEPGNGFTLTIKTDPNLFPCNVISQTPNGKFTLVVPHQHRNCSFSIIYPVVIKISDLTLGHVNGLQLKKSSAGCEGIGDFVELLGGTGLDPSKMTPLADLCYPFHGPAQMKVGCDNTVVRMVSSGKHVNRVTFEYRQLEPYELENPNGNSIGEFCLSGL

[10] = target: T3, Rac GTPase-activating protein 1 (Homo sapiens, UniProt Q9H0H5); assay: blockers of MgcRacGAP-driven Rac1 GTP hydrolysis – biochemical, ADP Hunter fluorescence, primary and confirmatory, confirmation (AID 624330); format: functional
T3 sequence (Q9H0H5 whole entry): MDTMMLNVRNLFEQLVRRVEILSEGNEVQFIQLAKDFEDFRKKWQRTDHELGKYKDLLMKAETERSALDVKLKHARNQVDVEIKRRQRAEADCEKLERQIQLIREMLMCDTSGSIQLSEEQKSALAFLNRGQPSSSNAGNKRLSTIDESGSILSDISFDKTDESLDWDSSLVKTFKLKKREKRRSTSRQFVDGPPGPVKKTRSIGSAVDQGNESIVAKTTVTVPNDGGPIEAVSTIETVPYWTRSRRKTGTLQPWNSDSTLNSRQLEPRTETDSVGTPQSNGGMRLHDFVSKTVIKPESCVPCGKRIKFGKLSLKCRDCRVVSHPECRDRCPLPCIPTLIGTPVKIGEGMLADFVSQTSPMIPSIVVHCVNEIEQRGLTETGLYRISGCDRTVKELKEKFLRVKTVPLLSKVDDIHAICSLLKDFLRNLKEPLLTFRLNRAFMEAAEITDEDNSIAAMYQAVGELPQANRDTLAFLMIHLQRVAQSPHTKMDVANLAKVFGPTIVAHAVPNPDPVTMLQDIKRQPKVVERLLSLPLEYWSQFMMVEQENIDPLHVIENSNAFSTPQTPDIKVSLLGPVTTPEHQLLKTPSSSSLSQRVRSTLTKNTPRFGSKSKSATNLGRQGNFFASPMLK

[11] = reduction of Shn3 3'UTR-driven luciferase in osteoblasts – cell-based, Clone20 osteoblasts, firefly luciferase, cherry-picked, dose response (AID 624132); format: functional;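 also: firefly luciferase luminescence from reporter carrying the Shn3 3'UTR in osteoblasts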
Paired box protein Pax-8 = Paired box protein Pax-8 (Homo sapiens, UniProt Q06710); assay: PAX8 transcriptional activity inhibition in RMG-I – RMG-I cells, luciferase, cherry-pick, dose response (AID 687027); format: functional, cell-based;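 also: luciferase reporter driven by Pax8 target thyroperoxidase promoter measured by SteadyGlo luminescence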
Paired box protein Pax-8, sequence (Q06710 whole entry): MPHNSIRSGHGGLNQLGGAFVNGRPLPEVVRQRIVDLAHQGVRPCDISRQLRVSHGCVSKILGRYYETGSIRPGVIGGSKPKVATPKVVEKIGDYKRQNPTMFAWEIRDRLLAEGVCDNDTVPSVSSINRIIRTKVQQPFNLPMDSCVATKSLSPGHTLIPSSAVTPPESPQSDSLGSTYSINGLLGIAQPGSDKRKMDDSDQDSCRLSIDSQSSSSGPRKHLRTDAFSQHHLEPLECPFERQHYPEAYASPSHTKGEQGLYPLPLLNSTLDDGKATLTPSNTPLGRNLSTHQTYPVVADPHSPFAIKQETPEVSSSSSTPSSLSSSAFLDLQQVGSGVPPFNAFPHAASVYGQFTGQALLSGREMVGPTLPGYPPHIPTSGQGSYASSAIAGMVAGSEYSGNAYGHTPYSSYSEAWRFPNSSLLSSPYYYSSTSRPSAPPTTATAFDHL

FAD-linked sulfhydryl oxidase ALR, sequence (P55789 whole entry): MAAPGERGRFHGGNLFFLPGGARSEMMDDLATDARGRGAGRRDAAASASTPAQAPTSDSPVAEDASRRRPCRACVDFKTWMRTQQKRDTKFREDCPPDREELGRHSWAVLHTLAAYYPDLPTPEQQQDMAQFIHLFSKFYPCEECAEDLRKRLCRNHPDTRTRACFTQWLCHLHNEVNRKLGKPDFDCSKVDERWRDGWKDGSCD
Cytochrome P450 2C19, sequence (P33261 whole entry): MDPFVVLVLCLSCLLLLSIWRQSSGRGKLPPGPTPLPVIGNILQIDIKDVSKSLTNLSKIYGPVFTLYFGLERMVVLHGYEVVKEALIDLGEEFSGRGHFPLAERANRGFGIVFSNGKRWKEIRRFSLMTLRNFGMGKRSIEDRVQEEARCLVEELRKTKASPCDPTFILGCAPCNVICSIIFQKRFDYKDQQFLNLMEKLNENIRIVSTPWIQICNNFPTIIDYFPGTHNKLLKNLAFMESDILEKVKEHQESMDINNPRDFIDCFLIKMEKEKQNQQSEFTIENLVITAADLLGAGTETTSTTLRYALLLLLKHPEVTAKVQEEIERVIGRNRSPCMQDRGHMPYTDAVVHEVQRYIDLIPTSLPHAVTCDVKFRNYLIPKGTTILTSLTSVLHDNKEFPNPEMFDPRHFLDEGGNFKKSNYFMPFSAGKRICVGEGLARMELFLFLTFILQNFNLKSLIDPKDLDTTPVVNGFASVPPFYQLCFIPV

COc1ccc2[nH]c(C)c(-c3csc(N)n3)c2c1
AC50 [1]: 5.23 µM (active)

Cc1ccc(-c2nc(-c3cccnc3)sc2CC(=O)Nc2ccc(C)c(Cl)c2)cc1
EC50 [2]: > 120 µM (not active)
EC50 [3]: 0.3 µM (active)
EC50 [4]: > 120 µM (not active)

O=[N+]([O-])c1cccnc1N1CCC(c2cc(-c3ccc(Cl)cc3Cl)[nH]n2)CC1
AC50 [5]: 4.74 µM (active)
EC50 (Streptococcus): 13.4 µM (active)
EC50 [6]: 2.31 µM (active)
EC50 (Streptokinase A): 4.61 µM (active)

O=C(COC(=O)c1c2c(nc3ccccc13)/C(=C\c1cccs1)CCC2)Nc1ccccc1
AC50 [5]: 1.54 µM (active)
EC50 [7]: 1.9 µM (active)
EC50 [8]: > 60 µM (inconclusive)

COc1ccc(Cc2nnc(NC(=O)c3ccc(OC)c(OC)c3)s2)cc1OC
EC50 [2]: > 120 µM (not active)
EC50 [3]: > 120 µM (not active)
EC50 [4]: > 120 µM (not active)

CCCCCNCC(=O)Nc1cccc(C(=O)Nc2cccc(C(F)(F)F)c2)c1
AC50 [5]: 9.98 µM (active)

O=C1/C(=C\c2cc(Br)cc(Br)c2O)SC(=S)N1Cc1ccccc1
AC50 [5]: 0.894 µM (active)

Cc1ccccc1CS(=O)(=O)c1ccc(C(=O)N2CCOCC2)cc1[N+](=O)[O-]
EC50 [2]: > 120 µM (not active)
EC50 [3]: > 120 µM (not active)
EC50 [4]: > 120 µM (not active)

N#Cc1c2n(c3c(S)ncnc13)CCCCC2
AC50 [1]: 1.65 µM (active)
AC50 (Cytochrome P450 2C19): 25.1 µM (inconclusive)

Cc1ccc(-c2ccc(CCC(=O)O)n2NC(=O)c2cccs2)cc1
AC50 [1]: 8.15 µM (active)

COCCNc1nnnc2c1sc1nc(N3CCOCC3)c3c(c12)CC(C)(C)OC3
EC50 [2]: 15.8 µM (active)
EC50 [3]: > 120 µM (not active)
EC50 [4]: > 120 µM (not active)

CC(C)(C)NC(=O)c1ccc2c(c1)C1C3CCC(C3)C1C(c1ccccc1)N2 (centres undefined)
EC50 [2]: > 120 µM (not active)
EC50 [3]: > 120 µM (not active)
EC50 [4]: > 120 µM (not active)

COc1ccc(C(=O)NC(=S)N2CCN(c3ccccc3OC)CC2)cc1OC
EC50 [2]: > 120 µM (not active)
EC50 [3]: > 120 µM (not active)
EC50 [4]: > 120 µM (not active)

Nc1nc2c3ccccc3nc(Cc3ccccc3)n2n1
EC50 [2]: 29.4 µM (active)
EC50 [3]: > 120 µM (not active)
EC50 [4]: 20.8 µM (active)

N#Cc1ccc(NCCc2ccccn2)c([N+](=O)[O-])c1
EC50 [2]: 23.7 µM (active)
EC50 [3]: > 120 µM (not active)
EC50 [4]: > 120 µM (not active)

Cc1cc(C)nc(NC(=O)/C=C/c2cccs2)c1
AC50 [5]: 6.68 µM (active)

O=[N+]([O-])c1cc(-c2cnc3ccccc3n2)ccc1Oc1ccc(Cl)cc1
AC50 [5]: 0.628 µM (active)

Cc1ccc(-n2c(C)cc(C(=O)CN3C(=O)C(=O)N(C4CCCC4)C3=O)c2C)cc1
EC50 [9]: > 53 µM (inactive)

CCOC(=O)C(O)(c1ccc(NC(=S)NC(=O)c2ccc(Cl)cc2Cl)cc1)C(F)(F)F (centres undefined)
EC50 [9]: 15.9 µM (active)

Cc1cc(NC(=O)CN2C(=O)NC(C)(c3ccc(OC(F)F)cc3)C2=O)no1 (centres undefined)
EC50 [9]: 14.4 µM (active)

Cc1onc(-c2c(Cl)cccc2Cl)c1C(=O)NNc1ccccc1
AC50 [5]: 1.44 µM (active)

CCOC(=O)Nc1sc(C(=O)N(C)C)c(C)c1C(=O)OCC
EC50 [2]: 23.9 µM (active)
EC50 [3]: > 120 µM (not active)
EC50 [4]: 76.5 µM (active)

CC1(C)Cc2nc3[nH]nc(N)c3cc2CO1
AC50 [1]: 4.26 µM (active)

Cc1cc2c3c(ccc(C)c3n1)N=CN2c1ccccc1
EC50 [2]: 12.3 µM (active)
EC50 [3]: 23.3 µM (active)
EC50 [4]: 119 µM (active)

CC(=O)N1CCN(c2ccc(NCc3cccc(C)c3)cc2)CC1
AC50 [1]: 0.787 µM (active)
IC50 [10]: 9.89 µM (active)

CN1C(=O)c2ccccc2NC(=O)C1Cc1ccccc1 (centres undefined)
AC50 [1]: 3.26 µM (active)

CC(=O)Nc1ccc(N2C(=O)CSC2c2ccccc2)cc1 (centres undefined)
AC50 [1]: 0.025 µM (active)

CCCNC(=O)c1onc(CSc2ccc(Cl)cc2)c1C(=O)NCCC(C)C
AC50 [5]: 1.93 µM (active)

CCc1cccc(CC)c1N1C(=O)C2=C(SCCCS2)C1=O
EC50 [9]: 6.9 µM (active)

COc1ccc(OC)c(NC(=O)c2cc(-c3cc(F)ccc3OCC3CCCO3)[nH]n2)c1 (centres undefined)
AC50 [11]: 10.5 µM (active)

Cc1ccc(S(=O)(=O)Nc2ccc3c(c2)C(=O)N([C@@H](C)CO)C[C@@H](C)[C@@H](CN(C)Cc2ccc(Cl)c(Cl)c2)OCCCC[C@@H](C)O3)cc1
AC50 (Paired box protein Pax-8): 9.18 µM (active)

C[C@@H]1CCCCO[C@H](CN(C)C(=O)Nc2ccc(C(F)(F)F)cc2)[C@@H](C)CN([C@@H](C)CO)C(=O)c2cc(NC(=O)Nc3ccccc3)ccc2O1
AC50 (Paired box protein Pax-8): 1.89 µM (active)

C[C@@H]1CN([C@@H](C)CO)C(=O)Cc2cc(NC(=O)C3CC3)ccc2O[C@H]1CN(C)Cc1ccc(-c2ccccc2)cc1
AC50 (Paired box protein Pax-8): 18.9 µM (active)

Cc1ccc(N/N=C2/CCCNC2=O)cc1
AC50 [1]: 2.66 µM (active)

CC1=CC(C)[C@H](/C=N/n2c(=O)[nH]c3c([nH]c4ccc(Br)cc43)c2=O)C(C)C1 (some centres undefined)
AC50 [5]: 0.876 µM (active)
EC50 [7]: 2.06 µM (active)
EC50 [8]: > 60 µM (not active)
